Here are results for 17 compounds from US4576940A, “Anti-allergic 3-indolecarboxamides” (Yoshitomi Pharmaceutical Industries, Ltd., priority 1983, dated 1986).

For orientation: LD50 means the dose expected to kill half of the subjects tested. Read a low LD50 as greater toxicity. The term IC50 denotes the concentration that inhibits the measured activity by half.

The conditions of series [1]: prior art, in words; cited from earlier work.
For series [2] the following is noted: prior art, in words; cited from earlier work. This is another data set of the same source.
For series [3] the following is noted: prior art, in words; cited from earlier work. This is another data set of the same source.
For a further series, the system named is histamine induced asthma. The experiment in a line: Inhibitory effect on histamine induced asthma in guinea pigs. In kind it is in vivo, guinea pig (female Hartley). The settings on record: Cavia porcellus, po, read-out: Antihistaminic activity (% inhibition). The method, then:
2. Inhibitory effect on histamine induced asthma in guinea pigs
The experiment was performed according to the method of Suyama et al. which is described in Jpn. J. Allergol. 15, 549-556, 1966. Female Hartley guinea pigs weighing 300-400 g were used in groups of 5 or more. One hour after the oral administration of test compound solution, animals were placed in a transparent square box and exposed to a 0.2% histamine hydrochloride (Nakarai Chemicals, Ltd.) saline aerosol using an ultrasonic nebulizer (Nihon Kohden, TUR-3000). Protection was assessed during the exposure period (5 minutes) by the presence or absence of loss of righting due to dyspnea. The effects of test compounds were expressed in terms of percent inhibition.

A further series in a line: Acute toxicity in rats. The settings on record: rat, in vivo, 14 days observation. The method, then:
(§1) 3. Acute toxicity in mice and rats
(§2) The acute toxicity of test compound No. 2 was evaluated in 120 male mice weighing 30-42 g and 120 female mice weighing 23-35 g, and in 56 male rats weighing 150-190 g and 56 female rats weighing 115-150 g by oral and intraperitoneal administration. […] LD50 values were calculated by probit method.

For another series, the target named is T1, 5-lipoxygenase (Cavia porcellus, UniProt A0A286X958).
T1 construct: Guinea pigs were anesthetized with ethyl ether, and the peripheral blood was collected in heparinized syringes; endogenous in cells; host or cells: guinea pig peripheral blood leukocytes (dextran sedimentation, erythrocytes lysed)
T1 sequence (A0A286X958 1-674): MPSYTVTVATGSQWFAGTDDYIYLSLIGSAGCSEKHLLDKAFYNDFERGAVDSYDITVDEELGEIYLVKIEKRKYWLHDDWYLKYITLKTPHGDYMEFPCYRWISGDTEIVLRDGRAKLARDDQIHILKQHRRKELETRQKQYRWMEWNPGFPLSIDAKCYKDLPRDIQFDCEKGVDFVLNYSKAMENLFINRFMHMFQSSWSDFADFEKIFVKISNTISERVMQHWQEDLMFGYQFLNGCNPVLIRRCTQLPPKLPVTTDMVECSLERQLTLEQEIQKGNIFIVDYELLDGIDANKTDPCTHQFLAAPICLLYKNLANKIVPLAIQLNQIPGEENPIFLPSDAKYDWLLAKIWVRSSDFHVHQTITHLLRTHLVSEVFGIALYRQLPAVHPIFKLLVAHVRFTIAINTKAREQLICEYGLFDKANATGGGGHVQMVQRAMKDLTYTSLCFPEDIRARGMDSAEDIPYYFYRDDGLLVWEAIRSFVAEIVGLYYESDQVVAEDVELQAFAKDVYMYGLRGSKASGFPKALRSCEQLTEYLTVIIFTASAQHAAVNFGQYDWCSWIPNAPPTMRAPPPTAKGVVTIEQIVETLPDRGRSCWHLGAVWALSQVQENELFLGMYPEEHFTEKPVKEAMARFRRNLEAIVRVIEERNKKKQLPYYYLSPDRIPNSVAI
The experiment in a line: 5-lipoxygenase inhibition (arachidonic acid induced chemiluminescence of peripheral leukocytes in guinea pigs). It is filed as cell-based, guinea pig. The method, then:
1. Inhibitory activity on 5-lipoxygenase (Effect of test compounds on arachidonic acid induced chemiluminescence of peripheral leukocytes in guinea pigs)
(1) Isolation of leukocytes and preparation of leukocyte suspension
Guinea pigs were anesthetized with ethyl ether, and the peripheral blood was collected in heparinized syringes (10 U/ml, blood) from the abdominal aorta through a needle.
50 ml of a 6% dextran solution (molecular weight 177,000, Nakarai Chemicals Ltd.) was added to 100 ml of blood. This suspension was gently mixed, and was allowed to sediment for 60 minutes at room temperature. The upper leukocyte-rich suspension was centrifuged at 400×g for 10 minutes at room temperature. Tris-HCl buffer (pH 7.65) containing 5.0 ml of a 0.83% ammonium chloride solution was added to the cell pellet to lyse remaining erythrocytes. This suspension was centrifuged at 150×g for 10 minutes at 4° C. Eagle's MEM (10 ml) containing 10% fetal bovine serum (Flow Laboratories, Inc.) was added to the cell pellet. This suspension was centrifuged under the same conditions. The cell pellet was suspended in an equal volume of phosphate buffered saline (pH 7.4) containing 0.2% glucose and 0.2% bovine serum albumin, and this mixture was centrifuged under the same conditions. The above procedure was performed twice, and the cell pellet was suspended in the above buffer to adjust the leukocyte counts to 5×10^6 cells/ml.
(2) Chemiluminescence assay
Chemiluminescence was measured by the method of Yoshimoto et al. which is described in Biochem. Biophys. Res. Commun. 107, 779-784, 1982. Briefly, 0.3 ml of a leukocyte suspension was preincubated with 5 μl of a test compound solution of phosphate-buffered saline as controls, 0.05 ml of 1 mM luminol (Nakarai Chemicals, Ltd.) and 0.05 ml of 100 μM indomethacin (Sumitomo Chemical Co. Ltd.) After preincubation at 26° C. for 2 minutes, 100 μl of 2 mM arachidonic acid (Sigma) was added to the reaction mixture. Chemiluminescence was recorded continuously by an Aminco Chem-Glow model J4-7441S photometer equipped with a Hitachi model 056 recorder, and the peak height of luminol intensity was measured. The effects of test compounds were expressed as IC50 values (μM).

Another series in a line: Acute toxicity in mice. The conditions noted are these: mouse, in vivo, 14 days observation. The method, then:
as §1, §2

For series [4] the following is noted: background, in words; cited from earlier work.
The mark [5] stands for this setting: arachidonic acid induced chemiluminescence, guinea pig leukocytes, median inhibition concentration, read-out: 5-lipoxygenase inhibiting activity IC50.

Structures can show the parent of a compound that is named as a salt. Where two headings read alike, the source gives them in different places.

As for `O=C(NC1CCN(CCc2c[nH]c3ccccc23)CC1)c1c[nH]c2ccccc12` [3-[2-(4-[indole-3-carboxamido]-1-piperidyl)ethyl]indole], in series [1], the anti-histaminic activity result is “very weak anti-histaminic activity”. In series [2], the hypotensive effect entry is “moderate hypotensive effect”. The anti-inflammatory action result in series [3] was “effective anti-inflammatory action”.
For `CN(C)CCOC(c1ccccc1)c1ccccc1` [Comparison B, Diphenhydramine, reference compound], in the series on histamine induced asthma (1 h), the inhibition in vivo at 5 mg/kg amounted to 20% and the inhibition in vivo at 25 mg/kg turned out to be 100%.
Regarding `CCCCn1c(C)c(C(=O)NC2CCN(CCc3ccccc3)CC2)c2cc(O)ccc21` [Example 2, 1-butyl-5-hydroxy-2-methyl-N-(1-(2-phenylethyl)-4-piperidyl)indole-3-carboxamide], the 50% lethal dose (LD50) at 336 h in “Acute toxicity in rats” (ip, female rats) is 1930 mg/kg; in “Acute toxicity in rats” (ip, male rats), 1940 mg/kg; in the series “Acute toxicity in rats” (po, female rats) it was greater than 9000 mg/kg; in the series “Acute toxicity in rats” (po, male rats) it was greater than 9000 mg/kg; in “Acute toxicity in mice” (ip, female mice), 1470 mg/kg; in “Acute toxicity in mice” (ip, male mice), 1430 mg/kg. Also, the LD50 at 336 h in the series “Acute toxicity in mice” (po, female mice) is greater than 10400 mg/kg; in “Acute toxicity in mice” (po, male mice), greater than 12000 mg/kg. The same compound returned a concentration for half-maximal inhibition (IC50) at 5-lipoxygenase of 0.45 µM. In the series on histamine induced asthma (1 h), the inhibition in vivo at 0.5 mg/kg came out at 40%. Moreover, the inhibition in vivo at 2.5 mg/kg in the series with histamine induced asthma (1 h) worked out at 100%.
`Cc1c(C(=O)NC2CCN(CCc3ccccc3)CC2)c2cc(O)ccc2n1Cc1ccccc1` [Example 4, 1-benzyl-5-hydroxy-2-methyl-N-(1-(2-phenylethyl)-4-piperidyl)indole-3-carboxamide hydrochloride] returned an IC50 against 5-lipoxygenase of 0.85 µM. In the series with histamine induced asthma (1 h), the inhibition in vivo at 0.5 mg/kg worked out at 60%.
For the compound `Cc1c(C(=O)NC2CCN(CCc3ccccc3)CC2)c2cc(O)ccc2n1C(C)C` [Example 5, 5-hydroxy-1-isopropyl-2-methyl-N-(1-(2-phenylethyl)-4-piperidyl)indole-3-carboxamide hydrochloride], the inhibition in vivo at 0.5 mg/kg in the series on histamine induced asthma (1 h) stood at 100%.
In the case of `Cc1c(C(=O)NC2CCN(CCc3ccccc3)CC2)c2cc(O)ccc2n1CC(C)C` [Example 6, 5-Hydroxy-1-isobutyl-2-methyl-N-(1-(2-phenylethyl)-4-piperidyl)indole-3-carboxamide hydrochloride], in the series on histamine induced asthma (1 h), the inhibition in vivo at 0.5 mg/kg was found to be 0% and the inhibition in vivo at 2.5 mg/kg is 60%.
For `CCCCCCn1c(C)c(C(=O)NC2CCN(CCc3ccccc3)CC2)c2cc(O)ccc21` [Example 10, 1-Hexyl-5-hydroxy-2-methyl-N-(1-(2-phenylethyl)-4-piperidyl)indole-3-carboxamide hydrochloride monohydrate], in that order: 20% and 100%.
In the case of `Cc1c(C(=O)NC2CCN(CCc3ccccc3)CC2)c2cc(O)ccc2n1C1CCCCC1` [Example 12, 1-Cyclohexyl-5-hydroxy-2-methyl-N-(1-(2-phenylethyl)-4-piperidyl)indole-3-carboxamide hydrochloride hemihydrate], the concentration for half-maximal inhibition (IC50) against 5-lipoxygenase amounted to 1.7 µM.
Compound `Cc1c(C(=O)NC2CCN(CCc3ccccc3)CC2)c2cc(O)ccc2n1CCc1ccccc1` [Example 16, 5-Hydroxy-2-methyl-1-(2-phenylethyl)-N-(1-(2-phenylethyl)-4-piperidyl)indole-3-carboxamide hydrochloride] came in with an IC50 at 5-lipoxygenase of 1 µM. Further, in the series on histamine induced asthma (1 h), the inhibition in vivo at 2.5 mg/kg was determined as 100%.
As to `Cc1c(C(=O)NC2CCN(CCc3ccccc3)CC2)c2cc(O)ccc2n1-c1ccc(Cl)cc1` [Example 24, 1-(p-Chlorophenyl)-5-hydroxy-2-methyl-N-(1-(2-phenylethyl)-4-piperidyl)indole-3-carboxamide hydrochloride], the IC50 on 5-lipoxygenase (setting [5]) amounted to 4.2 µM.
Still for that read-out and setting: in the case of `Cc1c(C(=O)NC2CCN(CCCc3ccccc3)CC2)c2cc(O)ccc2n1-c1ccccc1` [Example 26, 5-Hydroxy-2-methyl-1-phenyl-N-(1-(3-phenylpropyl)-4-piperidyl)indole-3-carboxamide hydrochloride monohydrate] it was 2.5 µM.
With `Cc1c(C(=O)NC2CCN(CCc3ccccc3)CC2)c2cc(O)ccc2n1-c1ccccc1` [Example 29, 5-Hydroxy-2-methyl-N-(1-(2-phenylethyl)-4-piperidyl)-1-phenylindole-3-carboxamide hydrochloride], the 50% inhibitory concentration (IC50) at 5-lipoxygenase (setting [5]) was found to be 1.4 µM. Further, the inhibition in vivo at 0.5 mg/kg in the series on histamine induced asthma (0.5 mg/kg, p.o., 1 hour before histamine aerosol, guinea pigs) came out at 33%.
As for `CCCCn1c(C)c(C(=O)NC2CCN(CCOc3ccccc3)CC2)c2cc(O)ccc21` [Example 31, 1-Butyl-5-hydroxy-2-methyl-N-(1-(2-phenoxyethyl)-4-piperidyl)indole-3-carboxamide], it took 0.26 µM to reach half-maximal inhibition on 5-lipoxygenase (IC50).
On to `CCCCC/C=C\C\C=C/C=C/C=C/[C@@H](SC[C@H](NC(=O)CC[C@H](N)C(=O)O)C(=O)NCC(=O)O)[C@@H](O)CCCC(=O)O` [LTC4], for which, in series [4], the bronchoconstriction activity entry is “strong bronchoconstriction activity”.
Turning to `CCCCC/C=C\C\C=C/C=C/C=C/[C@@H](SC[C@H](N)C(=O)NCC(=O)O)[C@@H](O)CCCC(=O)O` [LTD4], the bronchoconstriction activity entry in series [4] is listed as “strong bronchoconstriction activity”.
For the compound `CCCCC/C=C\C\C=C/C=C/C=C/[C@@H](SC[C@H](N)C(=O)O)[C@@H](O)CCCC(=O)O` [LTE4], the bronchoconstriction activity result in series [4] is “strong bronchoconstriction activity”.
Take `O=C(NC1CCN(CCc2c[nH]c3ccccc23)CC1)c1ccccc1` [indoramin, 3-[2-(4-benzamidopiperid-1-yl)ethyl]indole]: the hypotensive effect result in series [2] is listed as “possesses hypotensive activity”.
